# Measured values reported in ChEMBL document CHEMBL1136643, “Identification of a novel series of selective 5-HT7 receptor antagonists” (Bioorg Med Chem Lett, 2003).
# Columns and labels:
# [1] = target: 5-hydroxytryptamine receptor 2A (Homo sapiens, UniProt P28223); test: Binding affinity at human cloned 5-hydroxytryptamine 2A receptor.
# [2] = target: 5-hydroxytryptamine receptor 7 (Homo sapiens, UniProt P34969); test: Binding affinity at human cloned 5-hydroxytryptamine 7 receptor.
# [3] = target: T1, 5-hydroxytryptamine receptor 1A (Homo sapiens, UniProt P08908); test: Binding affinity towards 5-hydroxytryptamine 1A receptor in human using [3H]8-OH-DPAT as radioligand
# T1 sequence (P08908 whole entry): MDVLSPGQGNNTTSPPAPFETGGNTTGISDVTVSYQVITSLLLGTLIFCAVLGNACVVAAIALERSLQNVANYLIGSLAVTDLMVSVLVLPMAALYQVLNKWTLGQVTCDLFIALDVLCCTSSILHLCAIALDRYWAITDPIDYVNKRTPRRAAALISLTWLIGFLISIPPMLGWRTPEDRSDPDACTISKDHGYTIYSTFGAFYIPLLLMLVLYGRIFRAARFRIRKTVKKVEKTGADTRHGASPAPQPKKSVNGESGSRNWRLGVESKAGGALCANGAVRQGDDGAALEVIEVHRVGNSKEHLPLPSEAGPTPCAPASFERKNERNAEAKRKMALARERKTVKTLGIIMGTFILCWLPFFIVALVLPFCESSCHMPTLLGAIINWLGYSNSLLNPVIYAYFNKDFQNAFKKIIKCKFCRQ
# [4] = target: 5-hydroxytryptamine receptor 6 (Homo sapiens, UniProt P50406); test: Binding affinity towards human 5-hydroxytryptamine 6 receptor
# Sequence of 5-hydroxytryptamine receptor 6 (P50406 whole entry): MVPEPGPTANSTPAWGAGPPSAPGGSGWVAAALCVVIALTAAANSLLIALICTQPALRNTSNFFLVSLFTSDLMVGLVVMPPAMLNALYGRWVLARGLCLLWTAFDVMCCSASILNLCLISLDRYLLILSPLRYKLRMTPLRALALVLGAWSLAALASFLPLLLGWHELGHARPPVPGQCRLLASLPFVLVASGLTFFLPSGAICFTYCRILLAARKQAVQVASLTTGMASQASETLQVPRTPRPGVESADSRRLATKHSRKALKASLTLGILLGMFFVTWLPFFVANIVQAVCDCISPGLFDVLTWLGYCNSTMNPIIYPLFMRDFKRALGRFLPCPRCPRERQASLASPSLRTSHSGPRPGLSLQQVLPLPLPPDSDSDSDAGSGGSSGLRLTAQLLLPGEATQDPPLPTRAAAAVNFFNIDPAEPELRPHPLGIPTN
# [5] = target: 5-hydroxytryptamine receptor 1B (Homo sapiens, UniProt P28222); test: Binding affinity towards cloned human 5-hydroxytryptamine 1B receptor was determined
# Cytochrome P450 2D6 = Cytochrome P450 2D6 (Homo sapiens, UniProt P10635); test: Inhibition of human Cytochrome P450 2D6; type: ADME
# Sequence of Cytochrome P450 2D6 (P10635 whole entry): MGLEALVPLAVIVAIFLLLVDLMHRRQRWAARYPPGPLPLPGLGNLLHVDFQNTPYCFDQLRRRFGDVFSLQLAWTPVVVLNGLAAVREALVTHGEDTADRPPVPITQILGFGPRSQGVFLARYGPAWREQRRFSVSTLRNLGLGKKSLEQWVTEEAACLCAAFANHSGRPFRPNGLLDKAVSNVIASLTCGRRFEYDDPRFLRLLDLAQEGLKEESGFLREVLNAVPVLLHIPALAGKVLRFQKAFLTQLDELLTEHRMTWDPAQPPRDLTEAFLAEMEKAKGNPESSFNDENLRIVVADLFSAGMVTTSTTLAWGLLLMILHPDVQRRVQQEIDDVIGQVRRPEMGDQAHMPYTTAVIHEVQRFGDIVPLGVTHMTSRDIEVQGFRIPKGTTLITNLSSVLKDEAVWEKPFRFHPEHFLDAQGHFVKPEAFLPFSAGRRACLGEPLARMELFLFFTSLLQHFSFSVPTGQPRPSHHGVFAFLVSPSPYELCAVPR
# [6] = target: 5-hydroxytryptamine receptor 5A (Homo sapiens, UniProt P47898); test: Binding affinity towards cloned human 5-HT5A receptor was determined
# Sequence of 5-hydroxytryptamine receptor 5A (P47898 whole entry): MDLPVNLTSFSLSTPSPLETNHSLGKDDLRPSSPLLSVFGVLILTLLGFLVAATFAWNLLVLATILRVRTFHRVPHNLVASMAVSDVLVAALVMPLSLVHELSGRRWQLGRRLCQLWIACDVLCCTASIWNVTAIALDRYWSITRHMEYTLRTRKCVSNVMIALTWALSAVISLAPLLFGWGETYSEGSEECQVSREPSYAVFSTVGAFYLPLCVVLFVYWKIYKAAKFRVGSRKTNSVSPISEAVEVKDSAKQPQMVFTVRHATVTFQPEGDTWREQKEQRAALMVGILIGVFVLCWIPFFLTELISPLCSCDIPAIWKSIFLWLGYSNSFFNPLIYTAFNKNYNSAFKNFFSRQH
# Cytochrome P450 1A2 = target: T2, Cytochrome P450 1A2 (Homo sapiens, UniProt P05177); test: Inhibition of human Cytochrome P450 1A2; type: ADME
# T2 sequence (P05177 whole entry): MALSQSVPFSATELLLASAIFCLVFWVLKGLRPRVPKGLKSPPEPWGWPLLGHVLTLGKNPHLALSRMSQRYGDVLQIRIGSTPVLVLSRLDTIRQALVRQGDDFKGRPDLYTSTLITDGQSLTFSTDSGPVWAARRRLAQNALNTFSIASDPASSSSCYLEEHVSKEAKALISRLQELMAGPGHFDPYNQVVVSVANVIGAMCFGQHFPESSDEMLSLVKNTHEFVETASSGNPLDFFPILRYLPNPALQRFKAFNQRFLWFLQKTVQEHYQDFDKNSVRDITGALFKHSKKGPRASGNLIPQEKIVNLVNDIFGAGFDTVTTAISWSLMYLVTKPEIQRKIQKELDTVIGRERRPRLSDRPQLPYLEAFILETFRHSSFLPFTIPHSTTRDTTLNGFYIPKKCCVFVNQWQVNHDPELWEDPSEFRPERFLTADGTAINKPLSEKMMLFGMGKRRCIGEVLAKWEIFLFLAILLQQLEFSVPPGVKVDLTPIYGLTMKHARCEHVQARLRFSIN
# [7] = target: 5-hydroxytryptamine receptor 1D (Homo sapiens, UniProt P28221); test: Binding affinity towards cloned human 5-hydroxytryptamine 1D receptor
# Cytochrome P450 3A4 = Cytochrome P450 3A4 (Homo sapiens, UniProt P08684); test: Inhibition of human Cytochrome P450 3A4; type: ADME
# Sequence of Cytochrome P450 3A4 (P08684 whole entry): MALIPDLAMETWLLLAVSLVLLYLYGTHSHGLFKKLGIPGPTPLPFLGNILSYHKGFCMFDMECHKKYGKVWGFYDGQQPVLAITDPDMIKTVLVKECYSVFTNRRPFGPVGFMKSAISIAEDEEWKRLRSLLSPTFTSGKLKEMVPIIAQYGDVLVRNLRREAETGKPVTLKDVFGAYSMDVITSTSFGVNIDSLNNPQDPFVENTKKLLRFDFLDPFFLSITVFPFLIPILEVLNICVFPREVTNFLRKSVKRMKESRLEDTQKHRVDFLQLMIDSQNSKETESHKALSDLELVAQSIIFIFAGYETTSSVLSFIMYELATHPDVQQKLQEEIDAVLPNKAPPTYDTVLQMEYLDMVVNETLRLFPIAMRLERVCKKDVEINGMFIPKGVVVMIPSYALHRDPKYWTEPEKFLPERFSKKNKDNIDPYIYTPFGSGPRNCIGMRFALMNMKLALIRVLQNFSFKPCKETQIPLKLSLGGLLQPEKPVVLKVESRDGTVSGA
# [8] = target: T3, 5-hydroxytryptamine receptor 2C (Homo sapiens, UniProt P28335); test: Binding affinity towards cloned human 5-hydroxytryptamine 2C receptor was determined
# T3 sequence (P28335 whole entry): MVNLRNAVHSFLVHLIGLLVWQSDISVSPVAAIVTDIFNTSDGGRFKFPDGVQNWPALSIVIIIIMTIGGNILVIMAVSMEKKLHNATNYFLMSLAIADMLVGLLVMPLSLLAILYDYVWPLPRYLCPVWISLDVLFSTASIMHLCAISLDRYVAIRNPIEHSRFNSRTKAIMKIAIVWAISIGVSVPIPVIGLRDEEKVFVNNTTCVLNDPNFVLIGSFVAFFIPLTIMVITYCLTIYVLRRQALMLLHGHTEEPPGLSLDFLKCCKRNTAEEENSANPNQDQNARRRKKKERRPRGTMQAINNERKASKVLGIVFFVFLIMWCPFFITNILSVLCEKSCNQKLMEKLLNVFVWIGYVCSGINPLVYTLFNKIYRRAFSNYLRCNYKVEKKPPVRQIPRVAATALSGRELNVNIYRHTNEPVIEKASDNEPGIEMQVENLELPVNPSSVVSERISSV
# D(3) dopamine receptor = D(3) dopamine receptor (Homo sapiens, UniProt P35462); test: Binding affinity towards cloned human dopamine D3 receptor was determined
# Sequence of D(3) dopamine receptor (P35462 whole entry): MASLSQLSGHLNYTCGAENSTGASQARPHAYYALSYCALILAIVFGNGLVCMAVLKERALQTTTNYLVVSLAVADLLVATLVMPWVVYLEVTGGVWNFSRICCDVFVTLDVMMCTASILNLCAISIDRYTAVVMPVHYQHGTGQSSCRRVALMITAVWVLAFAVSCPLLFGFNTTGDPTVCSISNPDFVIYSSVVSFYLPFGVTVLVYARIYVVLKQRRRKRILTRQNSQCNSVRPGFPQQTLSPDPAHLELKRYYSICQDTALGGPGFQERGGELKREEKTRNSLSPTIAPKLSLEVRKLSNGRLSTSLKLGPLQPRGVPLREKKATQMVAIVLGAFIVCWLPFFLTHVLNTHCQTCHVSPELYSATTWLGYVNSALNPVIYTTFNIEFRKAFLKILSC
# [9] = target: 5-hydroxytryptamine receptor 2B (Homo sapiens, UniProt P41595); test: Binding affinity towards cloned human 5-hydroxytryptamine 2B receptor was determined
# Sequence of 5-hydroxytryptamine receptor 2B (P41595 whole entry): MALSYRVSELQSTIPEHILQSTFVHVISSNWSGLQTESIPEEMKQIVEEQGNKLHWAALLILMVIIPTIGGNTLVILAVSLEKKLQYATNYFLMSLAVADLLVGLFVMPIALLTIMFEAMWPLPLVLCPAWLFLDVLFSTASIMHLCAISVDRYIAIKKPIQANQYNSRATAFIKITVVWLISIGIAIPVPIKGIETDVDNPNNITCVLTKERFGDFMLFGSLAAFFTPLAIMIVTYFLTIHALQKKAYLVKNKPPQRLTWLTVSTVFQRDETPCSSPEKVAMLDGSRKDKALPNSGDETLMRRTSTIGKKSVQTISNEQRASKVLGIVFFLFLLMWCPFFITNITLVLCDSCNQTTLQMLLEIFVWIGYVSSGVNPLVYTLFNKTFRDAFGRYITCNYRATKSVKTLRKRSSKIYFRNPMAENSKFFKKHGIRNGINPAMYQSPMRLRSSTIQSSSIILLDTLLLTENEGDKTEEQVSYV
# Cytochrome P450 2C19 = Cytochrome P450 2C19 (Homo sapiens, UniProt P33261); test: Inhibition of human Cytochrome P450 2C19; type: ADME
# Sequence of Cytochrome P450 2C19 (P33261 whole entry): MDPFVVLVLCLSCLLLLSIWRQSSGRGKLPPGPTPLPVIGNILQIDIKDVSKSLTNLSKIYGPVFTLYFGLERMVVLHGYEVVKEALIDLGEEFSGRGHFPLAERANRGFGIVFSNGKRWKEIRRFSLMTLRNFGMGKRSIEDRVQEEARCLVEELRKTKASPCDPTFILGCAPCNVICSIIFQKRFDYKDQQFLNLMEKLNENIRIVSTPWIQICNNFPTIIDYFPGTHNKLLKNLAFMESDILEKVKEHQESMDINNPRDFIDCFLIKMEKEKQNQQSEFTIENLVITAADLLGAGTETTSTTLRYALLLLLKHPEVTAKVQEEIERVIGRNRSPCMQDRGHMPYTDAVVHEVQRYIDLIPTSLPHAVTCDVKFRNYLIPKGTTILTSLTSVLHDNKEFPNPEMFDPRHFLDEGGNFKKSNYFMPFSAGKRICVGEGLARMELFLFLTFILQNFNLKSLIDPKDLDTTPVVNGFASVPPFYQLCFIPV
# [10] = target: 5-hydroxytryptamine receptor 1E (Homo sapiens, UniProt P28566); test: Binding affinity towards cloned human 5-hydroxytryptamine 1E receptor was determined
# Sequence of 5-hydroxytryptamine receptor 1E (P28566 whole entry): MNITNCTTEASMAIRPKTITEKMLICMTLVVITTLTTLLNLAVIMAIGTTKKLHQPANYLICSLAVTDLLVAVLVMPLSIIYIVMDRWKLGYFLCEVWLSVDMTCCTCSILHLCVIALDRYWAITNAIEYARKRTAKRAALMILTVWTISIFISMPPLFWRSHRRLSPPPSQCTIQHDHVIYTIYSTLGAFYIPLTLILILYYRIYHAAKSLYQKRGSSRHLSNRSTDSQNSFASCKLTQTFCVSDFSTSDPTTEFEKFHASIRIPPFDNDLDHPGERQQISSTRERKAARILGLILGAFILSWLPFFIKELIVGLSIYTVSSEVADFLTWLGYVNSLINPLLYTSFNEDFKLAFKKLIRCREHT
# [11] = target: T4, 5-hydroxytryptamine receptor 1F (Homo sapiens, UniProt P30939); test: Binding affinity towards cloned human 5-hydroxytryptamine 1F receptor was determined
# T4 sequence (P30939 whole entry): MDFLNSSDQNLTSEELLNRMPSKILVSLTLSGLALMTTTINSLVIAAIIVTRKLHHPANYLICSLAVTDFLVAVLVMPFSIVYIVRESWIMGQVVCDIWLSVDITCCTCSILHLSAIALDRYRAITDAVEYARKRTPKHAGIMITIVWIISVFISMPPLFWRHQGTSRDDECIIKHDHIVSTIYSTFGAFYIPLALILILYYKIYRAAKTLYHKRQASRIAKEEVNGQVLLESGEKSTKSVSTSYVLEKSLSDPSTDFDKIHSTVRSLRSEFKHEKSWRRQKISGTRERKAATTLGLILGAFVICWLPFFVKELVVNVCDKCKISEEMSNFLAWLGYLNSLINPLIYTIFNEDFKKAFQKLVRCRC
# D(4) dopamine receptor = target: T5, D(4) dopamine receptor (Homo sapiens, UniProt P21917); test: Binding affinity towards cloned human dopamine D4 receptor was determined
# T5 sequence (P21917 whole entry): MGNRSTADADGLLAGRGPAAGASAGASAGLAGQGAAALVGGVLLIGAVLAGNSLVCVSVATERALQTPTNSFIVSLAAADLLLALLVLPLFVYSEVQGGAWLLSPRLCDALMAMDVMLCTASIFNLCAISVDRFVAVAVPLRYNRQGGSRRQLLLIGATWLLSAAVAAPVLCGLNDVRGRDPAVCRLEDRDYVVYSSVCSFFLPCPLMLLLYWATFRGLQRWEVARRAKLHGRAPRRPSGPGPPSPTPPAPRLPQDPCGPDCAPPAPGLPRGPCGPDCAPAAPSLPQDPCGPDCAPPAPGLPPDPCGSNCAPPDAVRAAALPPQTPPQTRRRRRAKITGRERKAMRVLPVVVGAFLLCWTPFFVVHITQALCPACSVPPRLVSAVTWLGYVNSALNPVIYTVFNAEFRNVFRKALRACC
# Cytochrome P450 2C9 = Cytochrome P450 2C9 (Homo sapiens, UniProt P11712); test: Inhibition of human cytochrome P450 isoform 2C9; type: ADME
# Sequence of Cytochrome P450 2C9 (P11712 whole entry, canonical isoform): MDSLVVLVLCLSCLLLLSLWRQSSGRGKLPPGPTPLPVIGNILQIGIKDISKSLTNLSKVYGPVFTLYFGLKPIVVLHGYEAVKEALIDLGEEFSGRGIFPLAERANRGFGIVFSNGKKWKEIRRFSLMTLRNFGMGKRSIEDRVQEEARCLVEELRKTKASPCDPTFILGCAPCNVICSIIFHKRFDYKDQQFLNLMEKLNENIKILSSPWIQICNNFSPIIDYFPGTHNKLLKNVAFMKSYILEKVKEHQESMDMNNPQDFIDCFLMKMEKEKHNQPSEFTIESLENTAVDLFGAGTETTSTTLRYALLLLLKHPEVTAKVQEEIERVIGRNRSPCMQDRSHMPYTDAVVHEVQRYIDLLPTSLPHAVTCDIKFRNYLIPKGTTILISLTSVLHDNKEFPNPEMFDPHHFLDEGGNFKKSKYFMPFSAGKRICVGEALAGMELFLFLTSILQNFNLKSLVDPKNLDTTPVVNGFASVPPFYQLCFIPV
# Sequence of 5-hydroxytryptamine receptor 2A (P28223 whole entry): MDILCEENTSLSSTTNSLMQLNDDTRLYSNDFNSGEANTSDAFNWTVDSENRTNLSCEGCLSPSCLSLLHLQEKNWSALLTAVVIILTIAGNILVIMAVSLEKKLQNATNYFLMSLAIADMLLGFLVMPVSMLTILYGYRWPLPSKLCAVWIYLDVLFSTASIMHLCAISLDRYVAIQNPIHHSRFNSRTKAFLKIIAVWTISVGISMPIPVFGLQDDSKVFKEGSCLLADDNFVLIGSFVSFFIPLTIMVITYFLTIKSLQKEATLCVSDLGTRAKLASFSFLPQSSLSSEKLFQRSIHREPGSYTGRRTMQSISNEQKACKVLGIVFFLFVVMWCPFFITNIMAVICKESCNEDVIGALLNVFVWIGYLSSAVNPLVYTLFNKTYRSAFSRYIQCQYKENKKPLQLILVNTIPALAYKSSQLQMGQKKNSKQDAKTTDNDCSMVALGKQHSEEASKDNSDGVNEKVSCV
# Sequence of 5-hydroxytryptamine receptor 7 (P34969 whole entry): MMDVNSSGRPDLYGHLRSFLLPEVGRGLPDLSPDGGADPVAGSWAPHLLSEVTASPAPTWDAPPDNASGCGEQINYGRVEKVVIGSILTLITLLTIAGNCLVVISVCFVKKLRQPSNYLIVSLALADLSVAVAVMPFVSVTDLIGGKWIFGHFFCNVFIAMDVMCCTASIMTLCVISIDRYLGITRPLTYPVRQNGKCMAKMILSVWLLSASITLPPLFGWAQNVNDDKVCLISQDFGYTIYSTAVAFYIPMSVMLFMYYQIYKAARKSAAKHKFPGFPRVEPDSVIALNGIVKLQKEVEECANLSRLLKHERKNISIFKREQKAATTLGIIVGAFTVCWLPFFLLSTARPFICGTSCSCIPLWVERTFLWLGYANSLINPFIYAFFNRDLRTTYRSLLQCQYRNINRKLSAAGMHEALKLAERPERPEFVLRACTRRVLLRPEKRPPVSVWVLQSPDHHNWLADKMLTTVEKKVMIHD
structure (smiles),measurement,setting,value
O=C1c2ccccc2CCCN1CCN1CCC(c2c[nH]c3ccccc23)CC1,Ki,[1],1.7 nM
same,Ki,[2],0.407 nM
Cc1ccccc1OC1CCN(CCC2CCCc3ccccc3C2=O)CC1 (stereo not given),Ki,[2],11.2 nM
O=C1c2ccccc2CCCN1CCN1CCC(n2c(=O)oc3ccccc32)CC1,Ki,[1],977 nM
same,Ki,[2],27.5 nM
O=C1c2ccccc2CCCN1CCN1CCC(n2c(O)nc3ccccc32)CC1,Ki,[1],> 1580 nM
same,Ki,[2],10.2 nM
O=C1c2ccccc2CCCN1CCN1CCC(n2c(=O)[nH]c3cc(F)ccc32)CC1,Ki,[3],479 nM
same,Ki,[4],> 5010 nM
same,Ki,[1],302 nM
same,Ki,[5],> 3980 nM
same,IC50,Cytochrome P450 2D6,10000 nM
same,Ki,[6],1480 nM
same,IC50,Cytochrome P450 1A2,62000 nM
same,Ki,[7],2400 nM
same,IC50,Cytochrome P450 3A4,> 100000 nM
same,Ki,[2],2.24 nM
same,Ki,[8],3310 nM
same,Ki,D(3) dopamine receptor,1700 nM
same,Ki,[9],1000 nM
same,IC50,Cytochrome P450 2C19,> 100000 nM
same,Ki,[10],> 10000 nM
same,Ki,[11],> 10000 nM
same,Ki,D(4) dopamine receptor,1230 nM
same,IC50,Cytochrome P450 2C9,35000 nM
O=C(c1ccc(Cl)cc1)C1CCN(CCN2CCCc3ccccc3C2=O)CC1,Ki,[1],77.6 nM
same,Ki,[2],2.51 nM
O=C1c2ccccc2CCCN1CCN1CCC(Oc2ccc(F)cc2)CC1,Ki,[1],31.6 nM
same,Ki,[2],4.47 nM
O=C1c2ccccc2CCCN1CCN1CCC(n2nnc3ccccc32)CC1,Ki,[1],269 nM
same,Ki,[2],14.1 nM
O=C1c2ccccc2CCCN1CCN1CCC(Oc2ccc(Cl)cc2)CC1,Ki,[1],74.1 nM
same,Ki,[2],11.7 nM
O=C1c2ccccc2CCCN1CCN1CCC(n2c(=O)oc3cc(F)ccc32)CC1,Ki,[1],186 nM
same,Ki,[2],9.33 nM
O=C1c2ccccc2CCCN1CCN1CCC(n2nnc3cc(F)ccc32)CC1,Ki,[1],49 nM
same,Ki,[2],2.04 nM
O=C1c2ccccc2CCCN1CCN1CCC(Oc2ccccc2)CC1,Ki,[1],155 nM
same,Ki,[2],20.4 nM
O=C1c2ccccc2CCCC1CCN1CCC(Oc2ccccc2)CC1 (stereo not given),Ki,[2],25.1 nM
O=C(c1ccc(F)cc1)C1CCN(CCN2CCCc3ccccc3C2=O)CC1,Ki,[1],17 nM
same,Ki,[2],1.66 nM
O=C1CC(CN2CCC(Oc3ccccc3)CC2)CCc2ccccc21 (stereo not given),Ki,[2],18.6 nM
Cc1ccc(OC2CCN(CCN3CCCc4ccccc4C3=O)CC2)cc1,Ki,[1],55 nM
same,Ki,[2],9.12 nM
COc1ccccc1C1CCN(CC2CCc3ccccc3C(=O)C2)CC1 (stereo not given),Ki,[2],11.2 nM
O=C1c2ccccc2CCCN1CCN1CCC(n2ccc3cc(F)ccc32)CC1,Ki,[1],6.92 nM
same,Ki,[2],0.562 nM
O=C1c2ccccc2CCCN1CCN1CCC(n2ccc3ccccc32)CC1,Ki,[1],19.5 nM
same,Ki,[2],2.75 nM
